The record followed here is ChEMBL document CHEMBL5465560, “Selectivity Literature for EUbOPEN Chemogenomic Library” (2024).

In test [1] the target is Mitogen-activated protein kinase 7 (Homo sapiens) (UniProt Q13164). Briefly: Selectivity interaction (Kinase panel (Carna Biosciences)) EUB0001542aTs MAPK7. To be noted: at 1 µM.
Test [2] has as its target Macrophage colony-stimulating factor 1 receptor (Homo sapiens) (UniProt P07333). Briefly: Selectivity interaction (KinomeScan (DiscoverX)) EUB0000607a CSF1R. To be noted: at 10 µM.
The target in test [3] is Protein arginine N-methyltransferase 5 (Homo sapiens, UniProt O14744). In words: Selectivity interaction (Scintillation proximity assays) EUB0000230b PRMT5.
For test [4], the target named is Receptor tyrosine-protein kinase erbB-3 (Homo sapiens) (UniProt P21860). Briefly: Selectivity interaction (KinomeScan (DiscoverX)) EUB0000229b ERBB3. Conditions: at 10 µM.
Sequence of Receptor tyrosine-protein kinase erbB-3 (Homo sapiens) (P21860 whole entry, canonical isoform): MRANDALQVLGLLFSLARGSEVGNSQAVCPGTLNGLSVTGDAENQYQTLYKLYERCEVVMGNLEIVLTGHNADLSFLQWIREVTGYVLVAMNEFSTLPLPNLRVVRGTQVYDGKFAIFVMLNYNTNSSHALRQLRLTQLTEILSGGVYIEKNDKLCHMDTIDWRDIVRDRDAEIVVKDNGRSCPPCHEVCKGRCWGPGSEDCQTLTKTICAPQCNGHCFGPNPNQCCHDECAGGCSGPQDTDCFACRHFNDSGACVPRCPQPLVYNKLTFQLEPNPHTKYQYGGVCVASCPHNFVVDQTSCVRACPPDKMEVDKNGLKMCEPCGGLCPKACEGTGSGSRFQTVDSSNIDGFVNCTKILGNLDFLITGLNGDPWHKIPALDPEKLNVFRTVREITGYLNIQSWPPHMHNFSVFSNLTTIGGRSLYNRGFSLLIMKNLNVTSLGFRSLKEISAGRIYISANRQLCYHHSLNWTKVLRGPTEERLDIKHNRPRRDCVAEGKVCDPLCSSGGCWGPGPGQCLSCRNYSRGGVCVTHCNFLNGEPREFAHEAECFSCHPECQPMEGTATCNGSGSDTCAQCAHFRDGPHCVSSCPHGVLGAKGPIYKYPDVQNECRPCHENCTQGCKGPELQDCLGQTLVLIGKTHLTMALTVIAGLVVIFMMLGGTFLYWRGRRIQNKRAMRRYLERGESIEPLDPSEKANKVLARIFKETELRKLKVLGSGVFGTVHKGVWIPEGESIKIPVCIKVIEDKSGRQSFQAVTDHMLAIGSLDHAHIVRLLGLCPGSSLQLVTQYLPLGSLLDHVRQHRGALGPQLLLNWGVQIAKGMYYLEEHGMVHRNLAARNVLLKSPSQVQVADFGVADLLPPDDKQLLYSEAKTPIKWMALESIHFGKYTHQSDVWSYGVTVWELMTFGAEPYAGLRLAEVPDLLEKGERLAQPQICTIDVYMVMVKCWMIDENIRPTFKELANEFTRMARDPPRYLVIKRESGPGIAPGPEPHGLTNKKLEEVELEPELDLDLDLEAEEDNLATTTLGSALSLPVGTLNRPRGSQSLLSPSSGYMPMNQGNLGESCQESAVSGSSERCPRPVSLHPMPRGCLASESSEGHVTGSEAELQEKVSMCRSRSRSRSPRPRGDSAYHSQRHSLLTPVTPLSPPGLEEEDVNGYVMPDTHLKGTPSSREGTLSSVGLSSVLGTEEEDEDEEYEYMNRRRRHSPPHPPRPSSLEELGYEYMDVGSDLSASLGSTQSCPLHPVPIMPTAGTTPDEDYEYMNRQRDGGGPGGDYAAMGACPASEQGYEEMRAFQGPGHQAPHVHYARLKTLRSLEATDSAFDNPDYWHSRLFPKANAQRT
In test [5] the target is Casein kinase I isoform gamma-3 (Homo sapiens) (UniProt Q9Y6M4). In words: Selectivity interaction (KinomeScan (DiscoverX)) EUB0000655a CSNK1G3. To be noted: at 10 µM.
Sequence of Casein kinase I isoform gamma-3 (Homo sapiens) (Q9Y6M4 whole entry, looked up, canonical isoform): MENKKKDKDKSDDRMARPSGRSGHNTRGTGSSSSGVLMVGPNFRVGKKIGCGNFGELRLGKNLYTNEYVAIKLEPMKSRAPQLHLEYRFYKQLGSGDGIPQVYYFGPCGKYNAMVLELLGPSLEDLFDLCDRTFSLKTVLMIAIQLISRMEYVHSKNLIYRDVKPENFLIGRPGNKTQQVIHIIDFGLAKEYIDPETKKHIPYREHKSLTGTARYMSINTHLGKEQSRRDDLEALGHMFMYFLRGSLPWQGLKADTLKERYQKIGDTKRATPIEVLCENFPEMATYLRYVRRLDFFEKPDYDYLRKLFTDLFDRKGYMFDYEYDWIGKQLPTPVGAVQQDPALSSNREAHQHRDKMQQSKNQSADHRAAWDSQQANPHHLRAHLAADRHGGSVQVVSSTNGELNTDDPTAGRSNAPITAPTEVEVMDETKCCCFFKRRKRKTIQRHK
For test [6], the target named is Serine/threonine-protein kinase/endoribonuclease IRE1 (Homo sapiens) (UniProt O75460). In words: Selectivity interaction (KinomeScan (DiscoverX)) EUB0001619a ERN1. To be noted: at 1 µM.
Test [7] deals with T1, EKC/KEOPS complex subunit TP53RK (Homo sapiens) (UniProt Q96S44).
T1 sequence (whole entry): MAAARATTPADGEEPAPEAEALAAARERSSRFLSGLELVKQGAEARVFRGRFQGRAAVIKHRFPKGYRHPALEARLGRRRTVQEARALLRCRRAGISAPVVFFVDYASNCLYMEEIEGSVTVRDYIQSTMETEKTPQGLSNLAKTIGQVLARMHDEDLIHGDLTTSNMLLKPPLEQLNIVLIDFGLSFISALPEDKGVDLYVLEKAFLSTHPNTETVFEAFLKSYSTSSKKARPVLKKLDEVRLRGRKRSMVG
In words: Selectivity interaction (ActivX KiNativ screen (kinase selectivity in THP-1 cell lysates)) EUB0000639a TP53RK. The class given is subcellular. To be noted: lysate.

For test [8], the target named is Calcium/calmodulin-dependent protein kinase type 1D (Homo sapiens) (UniProt Q8IU85). Briefly: Selectivity interaction (ActivX KiNativ screen (kinase selectivity in THP-1 cell lysates)) EUB0000639a CAMK1D. It is filed as subcellular. Conditions: lysate, at 0.04 µM.
Sequence of Calcium/calmodulin-dependent protein kinase type 1D (Homo sapiens) (Q8IU85 whole entry, looked up): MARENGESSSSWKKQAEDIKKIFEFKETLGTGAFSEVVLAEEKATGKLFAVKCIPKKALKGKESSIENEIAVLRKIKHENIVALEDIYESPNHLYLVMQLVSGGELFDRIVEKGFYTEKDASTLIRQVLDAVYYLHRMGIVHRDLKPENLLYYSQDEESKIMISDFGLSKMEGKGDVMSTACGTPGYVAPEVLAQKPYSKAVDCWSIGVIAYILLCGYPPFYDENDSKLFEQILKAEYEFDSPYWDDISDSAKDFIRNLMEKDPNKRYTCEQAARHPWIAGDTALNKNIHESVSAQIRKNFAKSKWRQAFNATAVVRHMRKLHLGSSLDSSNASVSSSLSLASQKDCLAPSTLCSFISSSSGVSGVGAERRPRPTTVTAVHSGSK
The target of test [9] is 5'-AMP-activated protein kinase catalytic subunit alpha-1 (Homo sapiens, UniProt Q13131). Conditions: at 10 µM.
Sequence of 5'-AMP-activated protein kinase catalytic subunit alpha-1 (Q13131 whole entry, looked up): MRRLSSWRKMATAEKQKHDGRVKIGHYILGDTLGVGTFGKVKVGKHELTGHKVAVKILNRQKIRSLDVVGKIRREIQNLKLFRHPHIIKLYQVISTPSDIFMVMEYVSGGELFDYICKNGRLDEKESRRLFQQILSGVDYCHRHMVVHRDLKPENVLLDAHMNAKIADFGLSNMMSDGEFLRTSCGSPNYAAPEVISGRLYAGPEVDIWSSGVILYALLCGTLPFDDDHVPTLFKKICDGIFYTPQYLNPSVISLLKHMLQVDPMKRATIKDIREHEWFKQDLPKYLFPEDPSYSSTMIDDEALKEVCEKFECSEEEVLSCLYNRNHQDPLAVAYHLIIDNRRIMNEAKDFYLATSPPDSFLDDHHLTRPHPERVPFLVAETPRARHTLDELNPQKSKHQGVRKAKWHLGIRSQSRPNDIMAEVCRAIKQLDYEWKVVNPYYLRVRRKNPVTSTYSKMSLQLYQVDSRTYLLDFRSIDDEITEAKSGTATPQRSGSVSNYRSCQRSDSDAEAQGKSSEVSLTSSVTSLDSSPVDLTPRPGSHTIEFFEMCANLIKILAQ
Test [10] has as its target Mitogen-activated protein kinase kinase kinase kinase 1 (Homo sapiens) (UniProt Q92918). In words: Selectivity interaction (KinomeScan (DiscoverX)) EUB0000695a MAP4K1. To be noted: at 100 nM.
The target of test [11] is High affinity choline transporter 1 (Homo sapiens) (UniProt Q9GZV3). Briefly: Selectivity interaction (Eurofins CEREP Diversity Profile (receptors and ion channels)) EUB0000279b SLC5A7. Conditions: at 10 µM.
The target in test [12] is Sodium-dependent noradrenaline transporter (Homo sapiens, UniProt P23975). Briefly: Selectivity interaction (Eurofins CEREP Diversity Profile (receptors and ion channels)) EUB0000279b SLC6A2. Conditions: at 10 µM.
Sequence of Sodium-dependent noradrenaline transporter (P23975 whole entry): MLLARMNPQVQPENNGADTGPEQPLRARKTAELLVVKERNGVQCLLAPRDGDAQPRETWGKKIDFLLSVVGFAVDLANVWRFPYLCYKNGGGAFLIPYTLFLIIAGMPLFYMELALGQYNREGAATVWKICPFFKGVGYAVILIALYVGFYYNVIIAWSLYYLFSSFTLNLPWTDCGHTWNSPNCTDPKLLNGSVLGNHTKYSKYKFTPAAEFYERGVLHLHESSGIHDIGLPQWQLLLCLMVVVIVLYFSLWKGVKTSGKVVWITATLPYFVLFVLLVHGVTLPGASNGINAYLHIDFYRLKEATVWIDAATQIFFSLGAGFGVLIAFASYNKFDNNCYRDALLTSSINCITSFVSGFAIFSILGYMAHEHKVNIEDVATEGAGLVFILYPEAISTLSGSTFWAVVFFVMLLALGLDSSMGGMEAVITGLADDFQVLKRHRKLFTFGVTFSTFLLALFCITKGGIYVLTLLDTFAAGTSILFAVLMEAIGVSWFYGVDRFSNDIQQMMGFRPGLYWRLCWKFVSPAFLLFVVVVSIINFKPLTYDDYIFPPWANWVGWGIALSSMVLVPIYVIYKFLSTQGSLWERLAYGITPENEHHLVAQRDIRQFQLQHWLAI
Test [13] addresses Tyrosine-protein kinase JAK2 (Homo sapiens, UniProt O60674). Briefly: Selectivity interaction (Antiproliferative activity against Tel-kinase transformed Ba/F3 cell line) EUB0000045b JAK2. The class given is cell-based. To be noted: BaF3.
The target in test [14] is T2, Tyrosine-protein kinase receptor TYRO3 (Homo sapiens) (UniProt Q06418).
T2 sequence (whole entry): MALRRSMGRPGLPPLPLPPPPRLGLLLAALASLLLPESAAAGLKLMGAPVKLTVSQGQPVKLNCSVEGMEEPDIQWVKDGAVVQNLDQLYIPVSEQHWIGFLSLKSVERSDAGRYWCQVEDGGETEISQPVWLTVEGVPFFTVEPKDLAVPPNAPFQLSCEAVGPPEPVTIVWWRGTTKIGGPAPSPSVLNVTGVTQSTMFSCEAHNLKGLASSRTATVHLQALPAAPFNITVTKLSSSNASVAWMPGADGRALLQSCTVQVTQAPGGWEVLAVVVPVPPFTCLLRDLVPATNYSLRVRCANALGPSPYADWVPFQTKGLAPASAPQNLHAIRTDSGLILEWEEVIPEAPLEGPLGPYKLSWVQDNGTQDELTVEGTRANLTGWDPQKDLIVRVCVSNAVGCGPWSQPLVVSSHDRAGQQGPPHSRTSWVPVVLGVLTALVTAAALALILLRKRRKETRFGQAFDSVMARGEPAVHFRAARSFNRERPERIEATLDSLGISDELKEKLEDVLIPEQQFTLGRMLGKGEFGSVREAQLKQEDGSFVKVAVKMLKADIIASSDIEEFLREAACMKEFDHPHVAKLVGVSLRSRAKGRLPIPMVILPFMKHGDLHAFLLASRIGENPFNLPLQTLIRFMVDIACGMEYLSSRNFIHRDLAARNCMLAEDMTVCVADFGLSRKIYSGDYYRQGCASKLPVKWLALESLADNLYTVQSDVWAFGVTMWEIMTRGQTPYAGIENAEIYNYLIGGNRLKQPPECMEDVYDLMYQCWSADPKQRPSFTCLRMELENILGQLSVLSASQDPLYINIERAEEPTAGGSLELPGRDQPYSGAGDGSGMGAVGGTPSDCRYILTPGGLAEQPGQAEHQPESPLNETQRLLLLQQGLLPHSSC
In words: Selectivity interaction (Upstate Kinase Profiler service (Millipore)) EUB0000056c TYRO3. To be noted: at 1 µM.

Sequence of Mitogen-activated protein kinase kinase kinase kinase 1 (Homo sapiens) (Q92918 whole entry, looked up): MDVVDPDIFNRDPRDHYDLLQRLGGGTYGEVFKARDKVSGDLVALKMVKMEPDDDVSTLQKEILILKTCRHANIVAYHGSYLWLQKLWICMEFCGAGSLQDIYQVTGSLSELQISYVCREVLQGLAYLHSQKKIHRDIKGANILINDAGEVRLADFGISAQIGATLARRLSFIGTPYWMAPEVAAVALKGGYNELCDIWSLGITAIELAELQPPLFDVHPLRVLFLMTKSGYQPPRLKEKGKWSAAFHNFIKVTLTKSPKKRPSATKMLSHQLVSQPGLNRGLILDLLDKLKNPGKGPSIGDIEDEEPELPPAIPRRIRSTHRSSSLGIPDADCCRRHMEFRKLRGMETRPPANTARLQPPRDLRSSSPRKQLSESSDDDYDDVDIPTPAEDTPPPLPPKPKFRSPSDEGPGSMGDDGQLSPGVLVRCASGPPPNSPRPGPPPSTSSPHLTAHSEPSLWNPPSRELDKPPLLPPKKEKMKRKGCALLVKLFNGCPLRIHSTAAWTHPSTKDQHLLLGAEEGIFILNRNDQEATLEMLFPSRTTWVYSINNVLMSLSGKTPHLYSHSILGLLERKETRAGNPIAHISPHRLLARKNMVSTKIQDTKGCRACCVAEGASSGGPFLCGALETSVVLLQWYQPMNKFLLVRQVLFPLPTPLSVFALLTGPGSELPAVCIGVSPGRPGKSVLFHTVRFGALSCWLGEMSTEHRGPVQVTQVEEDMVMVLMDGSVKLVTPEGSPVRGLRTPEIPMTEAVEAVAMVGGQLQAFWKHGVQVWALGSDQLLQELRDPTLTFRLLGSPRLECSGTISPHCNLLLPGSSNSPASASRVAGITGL
Sequence of Mitogen-activated protein kinase 7 (Homo sapiens) (Q13164 2-816 limits assumed): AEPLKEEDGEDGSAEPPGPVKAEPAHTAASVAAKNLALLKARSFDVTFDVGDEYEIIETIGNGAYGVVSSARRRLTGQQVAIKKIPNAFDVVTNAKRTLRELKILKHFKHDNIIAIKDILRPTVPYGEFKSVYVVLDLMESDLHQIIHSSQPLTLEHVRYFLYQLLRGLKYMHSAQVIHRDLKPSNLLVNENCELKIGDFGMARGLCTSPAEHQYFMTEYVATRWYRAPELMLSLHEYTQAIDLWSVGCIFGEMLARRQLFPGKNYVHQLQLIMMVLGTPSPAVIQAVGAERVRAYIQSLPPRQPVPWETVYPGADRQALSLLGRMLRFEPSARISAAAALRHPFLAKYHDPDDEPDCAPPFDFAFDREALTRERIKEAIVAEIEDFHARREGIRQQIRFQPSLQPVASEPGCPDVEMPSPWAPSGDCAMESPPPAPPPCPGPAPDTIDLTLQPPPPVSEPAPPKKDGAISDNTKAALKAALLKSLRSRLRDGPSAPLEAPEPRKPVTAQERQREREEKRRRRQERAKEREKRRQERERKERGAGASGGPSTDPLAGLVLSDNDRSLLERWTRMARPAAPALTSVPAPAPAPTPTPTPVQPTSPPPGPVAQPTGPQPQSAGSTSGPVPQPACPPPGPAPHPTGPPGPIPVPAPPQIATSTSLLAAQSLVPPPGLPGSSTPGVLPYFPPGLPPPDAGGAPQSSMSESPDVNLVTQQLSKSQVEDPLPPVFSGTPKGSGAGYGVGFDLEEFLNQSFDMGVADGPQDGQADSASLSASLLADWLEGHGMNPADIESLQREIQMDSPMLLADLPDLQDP

As for `Cn1cc(Nc2nccc(N3CC4CCC(C3)N4C(=O)[C@@H]3CC3(F)F)n2)cn1`, in [1], the % of inhibition turned out to be 63%.

In the case of `CNC(=O)Nc1ccc(-c2nc(N3CC4CCC(C3)O4)c3cnn(C4CCC5(CC4)OCCO5)c3n2)cc1`, the % of control in [2] was 100%.

`CNCCN1CCC(c2cc(CN(C)C(=O)c3cccc(Oc4ccccc4)c3)ccn2)CC1` yielded a 50% inhibitory concentration (IC50) in test [3] of more than 10 µM.

The compound `COc1cc(N(C)c2ccnc3ccc(C(F)(F)F)cc23)cc(OC)c1OC` displayed a % binding in [4] of 93%.

Turning to `CN(C)CCOc1ccc(-c2nc(-c3ccncc3)c(-c3ccc4c(c3)CC/C4=N\O)[nH]2)cc1`, the % of control in test [5] is 92%.

In turn, `N#Cc1cccc(-c2c[nH]c3ncnc(N4CCOCC4)c23)c1` gave a % of control in [6] of 74%.

`CC[C@@H]1[C@H](F)C(=O)N[C@@H]1COc1nccc2cc(C(N)=O)c(OC)cc12` [ZIMLOVISERTIB]: the % of inhibition in [7] (at 0.01 µM) was 13.5%; in test [7] (at 0.04 µM) it was 5.2%; in test [7] (at 0.2 µM), 15.3%; in test [7] (at 1 µM), 30.7%; in test [7] (at 5 µM), 60.6%; in [8], -15.2%.

The compound `CCN(CC)CCCCNc1ncc2cc(-c3cc(OC)cc(OC)c3)c(NC(=O)NC(C)(C)C)nc2n1` showed a % of control in test [9] of 100%.

Take `Cc1cc(F)c(C(=O)Nc2cccc(-c3nncn3C(C)C)n2)cc1-n1cnc(C2CC2)c1`: the % of control in [10] was determined as 97%.

Regarding `CC(=O)c1cc(-c2ccccc2OCC2CC2)c2ncccn12`, the % of control in test [11] and in test [12] was 90% in each case.

For `C=CC(=O)Nc1cc(-n2c(=O)ccc3cnc4ccc(-c5ccc(NS(C)(=O)=O)cc5)cc4c32)ccc1C`, in test [13], the GIC50 is 5.83 µM.

`Cc1ccc(-c2ccc3c(ccc4sc5c(c43)NC[C@@H](C)NC5=O)n2)cn1`: in test [14], the % of inhibition was 10%.

Broadly, the IC50 is the midpoint of a concentration-inhibition curve. Read a high IC50 as weaker potency.
